Reference: patent US9816227B2, “Textile products with herbal composition to render the fabrics insects repellent” (priority 2013, dated 2017)

Legend:
[1] = test system: insects (larvae, pupae, adults); experiment: Exposure of insect larvae: inhibition of development to pupae and adults; type: in vivo
Text: The possible effect of azadirachtin and other bioflavonoids including azadiradione, fraxinellone, nimbin, salannin, salannol, vepinin and vilasinin, the active components of the Neem seed oil extract, are inhibiting molting in larvae to pupae and adults of the most of the insects. Apart from delayed lethal action, effects on the pupation, adult emergence, and size of pupae or adults have been also observed. […] The compounds are characterized by their inhibition or prevention of formation of adult morphology. The effects on pupae (based on proportion of undeveloped individuals) and adults (based on incomplete development, attachment to puparia, or inability to fly) are dose-dependent.
No adults of insects are obtained at doses of 1.10, 10 and 100 μg/ml. These concentrations cause about 100% mortality of larvae or developed pupae. […] The treatments with 0.00001 and 0.001 μg/ml would result in an insignificant increase (0.8-1.6%) in the female wing length/width.

[2] = exposed to light and water; cited from earlier work
[3] = test system: desert locust (Schistocerca gregaria); details: in vivo; cited from earlier work

C/C=C(\C)C(=O)O[C@H]1C[C@@H](OC(C)=O)[C@@]2(C(=O)OC)CO[C@H]3[C@@H](O)[C@@](C)([C@]45O[C@@]4(C)[C@H]4C[C@@H]5O[C@@H]5OC=C[C@@]54O)[C@H]4[C@]1(CO[C@]4(O)C(=O)OC)[C@@H]32 [azadirachtin, dimethyl (2aR,3S,4S,R,S,7aS,8S,10R,10aS,10bR)-10-(acetyloxy)-3,5-dihydroxy-4-[(1S,2S,6S,8S,9R,11S)-2-hydroxy-11-methyl-5,7,10-trioxatetracyclo[6.3.1.02,6.09,11]dodec-3-en-9-yl]-4-methyl-8-{[(2E)-2-methylbut-2-enoyl]oxy}octahydro-1H-furo[3′,4′:4,4a]naphtho[1,8-bc]furan-5,10a(8H)-dicarboxylate]
increase in the female wing length/width ([1]; 0.00001 and 0.001 μg/ml, insignificant): 0.8-1.6%
effect on wing dimensions of females ([1]; 0.001, 0.01 and 0.1 μg/ml): do not significantly affect
pupal weights and dimensions, adult weights, wing dimensions, or interocular distances ([1]; treatment of larvae with 0.00001 to 0.1 μg/ml): significant reductions
degradation time [2]: ≤ 100 h
feeding inhibitor activity [3]: active
